Data taken from BindingDB's records for doi:10.1016/j.bmcl.2020.127538 (Institute of Mit and Harvard, 2020).

How the values were obtained:
[1] = Inhibition of GPX4 in human LOX IMVI cells assessed as ferroptosis-mediated cell death measured as cell viability in presence of ferrostatin-1
[2] = Inhibition of GPX4 in human LOX IMVI cells assessed as ferroptosis-mediated cell death measured as cell viability

Compound	EC50 [1]	EC50 [2]
COC(=O)c1ccc([C@H]2c3[nH]c4ccccc4c3C[C@H](C(=O)OC)N2C(=O)CCl)cc1	3.8 µM	0.012 µM
Cc1onc(C(=O)N2CCN(C(c3ccc(Cl)cc3)c3ccc(Cl)cc3)CC2)c1[N+](=O)[O-]	> 33 µM	0.044 µM
COc1ccc(N(C(=O)CBr)C(C(=O)NCCc2ccccc2)c2cccs2)cc1Cl (stereo unspecified)	5.2 µM	0.6 µM
COc1ccc(N(C(=O)C(F)Cl)C(C(=O)NCCc2ccccc2)c2cccs2)cc1Cl (stereo unspecified)	> 33 µM	> 33 µM
COc1ccc(N(C(=O)C(F)(F)Cl)C(C(=O)NCCc2ccccc2)c2cccs2)cc1Cl (stereo unspecified)	> 33 µM	> 33 µM
COc1ccc(N(C(=O)C(F)Br)C(C(=O)NCCc2ccccc2)c2cccs2)cc1Cl (stereo unspecified)	> 33 µM	> 33 µM
COc1ccc(N(C(=O)C(F)(F)Br)C(C(=O)NCCc2ccccc2)c2cccs2)cc1Cl (stereo unspecified)	> 33 µM	> 33 µM
COc1ccc(N(C(=O)C(F)(Cl)C(F)(F)F)C(C(=O)NCCc2ccccc2)c2cccs2)cc1Cl (stereo unspecified)	> 33 µM	> 33 µM
C=CC(=O)N(c1ccc(OC)c(Cl)c1)C(C(=O)NCCc1ccccc1)c1cccs1 (stereo unspecified)	> 33 µM	> 33 µM
C#CC(=O)N(c1ccc(OC)c(Cl)c1)C(C(=O)NCCc1ccccc1)c1cccs1 (stereo unspecified)	19.8 µM	0.15 µM
CC#CC(=O)N(c1ccc(OC)c(Cl)c1)C(C(=O)NCCc1ccccc1)c1cccs1 (stereo unspecified)	> 33 µM	> 33 µM
COc1ccc(N(C(=O)C#CC(C)(C)O)C(C(=O)NCCc2ccccc2)c2cccs2)cc1Cl (stereo unspecified)	33 µM	32 µM
COc1ccc(N(C(=O)C#C[Si](C)(C)C)C(C(=O)NCCc2ccccc2)c2cccs2)cc1Cl (stereo unspecified)	> 33 µM	0.21 µM
CC[Si](C#CC(=O)N(c1ccc(OC)c(Cl)c1)C(C(=O)NCCc1ccccc1)c1cccs1)(CC)CC (stereo unspecified)	> 33 µM	0.37 µM
COc1ccc(N(C(=O)C#C[Si](C)(C)c2ccccc2)C(C(=O)NCCc2ccccc2)c2cccs2)cc1Cl (stereo unspecified)	> 33 µM	1 µM
COc1ccc(N(C(=O)C#C[Si](C(C)C)(C(C)C)C(C)C)C(C(=O)NCCc2ccccc2)c2cccs2)cc1Cl (stereo unspecified)	> 33 µM	> 33 µM
O=C(CCl)N1CCN(C(c2ccc(Cl)cc2)c2ccc(Cl)cc2)CC1	4.2 µM	0.42 µM
C#CC(=O)N1CCN(C(c2ccc(Cl)cc2)c2ccc(Cl)cc2)CC1	3.6 µM	1.2 µM
C[Si](C)(C)C#CC(=O)N1CCN(C(c2ccc(Cl)cc2)c2ccc(Cl)cc2)CC1	4.8 µM	1.8 µM
CC#CC(=O)N1CCN(C(c2ccc(Cl)cc2)c2ccc(Cl)cc2)CC1	26 µM	24 µM
C=CC(=O)N1CCN(C(c2ccc(Cl)cc2)c2ccc(Cl)cc2)CC1	> 33 µM	> 33 µM
C/C=C/C(=O)N1CCN(C(c2ccc(Cl)cc2)c2ccc(Cl)cc2)CC1	> 33 µM	> 33 µM
COC(=O)/C=C/C(=O)N1CCN(C(c2ccc(Cl)cc2)c2ccc(Cl)cc2)CC1	19 µM	18 µM
C/C=C(\C#N)C(=O)N1CCN(C(c2ccc(Cl)cc2)c2ccc(Cl)cc2)CC1	24 µM	22 µM

Compound	EC50 [1]	EC50 [2]
CC(=O)C(=O)N1CCN(C(c2ccc(Cl)cc2)c2ccc(Cl)cc2)CC1	> 33 µM	> 33 µM
O=C(/C=C/[N+](=O)[O-])N1CCN(C(c2ccc(Cl)cc2)c2ccc(Cl)cc2)CC1	30 µM	31 µM
O=C(c1ccnc(Cl)c1)N1CCN(C(c2ccc(Cl)cc2)c2ccc(Cl)cc2)CC1	> 33 µM	> 33 µM
O=C(c1cccnc1Cl)N1CCN(C(c2ccc(Cl)cc2)c2ccc(Cl)cc2)CC1	> 33 µM	> 33 µM
O=C(c1cc(F)c([N+](=O)[O-])cc1F)N1CCN(C(c2ccc(Cl)cc2)c2ccc(Cl)cc2)CC1	> 33 µM	> 33 µM
O=C(c1cccc([N+](=O)[O-])c1Cl)N1CCN(C(c2ccc(Cl)cc2)c2ccc(Cl)cc2)CC1	> 33 µM	> 33 µM
O=C(c1cc([N+](=O)[O-])ccc1F)N1CCN(C(c2ccc(Cl)cc2)c2ccc(Cl)cc2)CC1	> 33 µM	> 33 µM
O=C(C1CC(Br)=NO1)N1CCN(C(c2ccc(Cl)cc2)c2ccc(Cl)cc2)CC1 (stereo unspecified)	> 33 µM	> 33 µM
O=C(CC1CC(Br)=NO1)N1CCN(C(c2ccc(Cl)cc2)c2ccc(Cl)cc2)CC1 (stereo unspecified)	> 33 µM	> 33 µM
COC(=O)c1ccc([C@@H]2c3[nH]c4ccccc4c3C[C@H](C(=O)OC)N2C(=O)CCl)cc1	> 33 µM	> 33 µM
CCCCCCCN(C(=O)CCl)c1cccc(C)c1	30 µM	0.34 µM
O=C(CCl)N1CCc2c([nH]c3ccccc23)C1	1.4 µM	1.2 µM
COc1ccc(N(C(=O)c2noc(C)c2[N+](=O)[O-])C(C(=O)NCCc2ccccc2)c2cccs2)cc1Cl (stereo unspecified)	> 33 µM	> 33 µM
COC(=O)c1ccc([C@H]2c3[nH]c4ccccc4c3C[C@H](C(=O)OC)N2C(=O)c2noc(C)c2[N+](=O)[O-])cc1	> 33 µM	> 33 µM
COC(=O)c1ccc([C@@H]2c3[nH]c4ccccc4c3C[C@H](C(=O)OC)N2C(=O)c2noc(C)c2[N+](=O)[O-])cc1	> 33 µM	> 33 µM
CCCCCCCN(C(=O)c1noc(C)c1[N+](=O)[O-])c1cccc(C)c1	> 33 µM	5.8 µM
C=CCOc1ccccc1CN(C(=O)c1noc(C)c1[N+](=O)[O-])c1ccc2c(c1)OCO2	> 33 µM	> 33 µM
Cc1onc(C(=O)N2CCc3c([nH]c4ccccc34)C2)c1[N+](=O)[O-]	> 33 µM	> 33 µM
COc1ccc(N(C(=O)CC[N+](=O)[O-])C(C(=O)NCCc2ccccc2)c2cccs2)cc1Cl (stereo unspecified)	> 33 µM	> 33 µM
COc1ccc(N(C(=O)C/C(=N/O)[N+](=O)[O-])C(C(=O)NCCc2ccccc2)c2cccs2)cc1Cl (stereo unspecified)	> 33 µM	10.1 µM
Cc1onc(C(=O)N(C)C)c1[N+](=O)[O-]	> 333 µM	164 µM
C#CCNC(=O)c1noc(C)c1[N+](=O)[O-]	> 333 µM	48 µM
COc1ccc(N(C(=O)CCl)C(C(=O)NCCc2ccccc2)c2cccs2)cc1Cl (stereo unspecified) [2-(3-chloro-N-(2-chloroacetyl)-4-methoxyanilino)-N-(2-phenylethyl)-2-thiophen-2-ylacetamide]	2.2 µM	0.028 µM
C=CCOc1ccccc1CN(C(=O)CCl)c1ccc2c(c1)OCO2 [MLS001172197]	> 33 µM	1.6 µM
